Data taken from patent US20260317320A1, “C5AR1 ANTAGONISTS AND USES THEREOF” (Vanqua Bio, Inc., priority 2022, published 2026).
Where two headings read alike, the source gives them in different places.

Assays:
[1] = target: T1, complement C5a receptor 1 (C5aR1) (Homo sapiens, UniProt P21730); test: β-arrestin recruitment via C5aR1 activation in live CHO-K1 cells (PathHunter), antagonist mode; format: cell-based; settings: antagonist mode; recombinant hC5a (EC90) as competing natural agonist; live CHO-K1 cells; read-out: [Antagonist] B-arrestin2 recruitment: Average IC50
T1 construct: β-galactosidase fragment (PathHunter enzyme complementation); host or cells: CHO-K1 (PathHunter CHO-K1 C5aR1 β-arrestin cell line)
T1 sequence (P21730 1-350): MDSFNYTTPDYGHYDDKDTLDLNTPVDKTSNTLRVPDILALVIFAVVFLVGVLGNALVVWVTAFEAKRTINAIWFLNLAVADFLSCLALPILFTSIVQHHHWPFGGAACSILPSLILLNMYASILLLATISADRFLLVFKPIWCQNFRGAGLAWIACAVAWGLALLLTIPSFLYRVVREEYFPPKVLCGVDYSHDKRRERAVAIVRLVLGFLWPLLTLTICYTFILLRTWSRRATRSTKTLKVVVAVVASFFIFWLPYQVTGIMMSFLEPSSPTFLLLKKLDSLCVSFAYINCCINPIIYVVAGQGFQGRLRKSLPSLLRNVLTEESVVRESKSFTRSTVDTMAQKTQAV
How it was run: (§1)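 β-arrestin recruitment to C5aR1 in CHO-K1 cells is detected by enzyme-fragment complementation. Antagonism is measured against recombinant hC5a at its EC90; agonism is measured with compound alone. Potencies are grouped into IC50 categories.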

[2] = target: T1, complement C5a receptor 1 (C5aR1); test: β-arrestin recruitment via C5aR1 activation in live CHO-K1 cells (PathHunter), agonist mode; format: cell-based
How it was run: as §1

IC50 [1] [µM]	[Agonist] B-arrestin2 recruitment: Average EC50 (nM) ([2]; at 10 μM)	[Agonist] B-arrestin2 recruitment: Average EC50 (nM) [2]	Compound
< 0.5	Non-Active at 10 μM	–	Cc1cnc2cc([C@@H]3CC[C@H](c4c(C)cccc4F)C3)c(=O)n(Cc3ncccc3C(F)F)c2n1 [187C, 5-((3-(Difluoromethyl)pyridin-2-yl)methyl)-7-((1R,3S)-3-(2-fluoro-6-methylphenyl)cyclopentyl)-3-methylpyrido[2,3-b]pyrazin-6(5H)-one]
< 0.5	Non-Active at 10 μM	–	Cc1cnc2c(cc([C@H]3CC[C@H](c4c(C)cccc4F)CC3)c(=O)n2Cc2ncccc2C(F)(F)F)n1 [compound 182, 7-((1r,4r)-4-(2-Fluoro-6-methylphenyl)cyclohexyl)-2-methyl-5-((3-(trifluoromethyl)pyridin-2-yl)methyl)pyrido[2,3-b]pyrazin-6(5H)-one]
0.5 to 5	–	Non-Active	COc1nccnc1Cn1c(=O)c(C2CCN(c3c(C)cccc3F)CC2)c(C)c2nccnc21 [compound 3, 7-(1-(2-Fluoro-6-methylphenyl)piperidin-4-yl)-5-((3-methoxypyrazin-2-yl)methyl)-8-methyl pyrido[2,3-b]pyrazin-6(5H)-one]
< 0.5	Non-Active at 10 μM	–	Cc1cnc2cc(C3CCN(c4ncccc4C(F)F)CC3)c(=O)n(Cc3ncccc3C(F)(F)F)c2n1 [compound 154, 7-(1-(3-(Difluoromethyl)pyridin-2-yl)piperidin-4-yl)-3-methyl-5-((3-(trifluoromethyl)pyridin-2-yl)methyl)pyrido[2,3-b]pyrazin-6(5H)-one]
< 0.5	Non-Active at 10 μM	–	Cc1cnc2cc([C@H]3CC[C@@H](c4c(C)ccnc4F)CC3)c(=O)n(Cc3ncccc3C(F)(F)F)c2n1 [147A, 7-((1s,4s)-4-(2-Fluoro-4-methylpyridin-3-yl)cyclohexyl)-3-methyl-5-((3-(trifluoromethyl)pyridin-2-yl)methyl)pyrido[2,3-b]pyrazin-6(5H)-one]
< 0.5	–	Non-Active	COc1cccnc1Cn1c(=O)c([C@H]2CC[C@H](c3c(C)cccc3F)CC2)cc2ncc(C)nc21 [compound 199, 7-((1r,4r)-4-(2-Fluoro-6-methylphenyl)cyclohexyl)-5-((3-methoxypyridin-2-yl)methyl)-3-methylpyrido[2,3-b]pyrazin-6(5H)-one]
0.5 to 5	–	Non-Active	Cc1cccc(F)c1N1CCC(n2c(=O)c3nccnc3n(Cc3ncccc3C(F)(F)F)c2=O)CC1 [compound 42, 3-(1-(2-Fluoro-6-methylphenyl)piperidin-4-yl)-1-((3-(trifluoromethyl)pyridin-2-yl)methyl)pteridine-2,4(1H,3H)-dione]
< 0.5	–	Non-Active	Cc1cccc(F)c1N1CCC(c2cc3nccnc3n(Cc3cnccc3C(F)(F)F)c2=O)CC1 [compound 16, 7-(1-(2-Fluoro-6-methylphenyl)piperidin-4-yl)-5-((4-(trifluoromethyl)pyridin-3-yl)methyl) pyrido[2,3-b]pyrazin-6(5H)-one]
< 0.5	Non-Active at 10 μM	–	COc1ccnc(F)c1[C@H]1CC[C@H](c2cc3ncc(C)nc3n(Cc3ncccc3C(F)(F)F)c2=O)CC1 [compound 189, 7-((1r,4r)-4-(2-Fluoro-4-methoxypyridin-3-yl)cyclohexyl)-3-methyl-5-((3-(trifluoromethyl)pyridin-2-yl)methyl)pyrido[2,3-b]pyrazin-6(5H)-one]
> 100	–	Non-Active	Cc1cnc2cc(N3CCN(c4cc(F)cnc4C)CC3)c(=O)n(Cc3ncccc3C(F)(F)F)c2n1 [compound 69, 7-(4-(5-Fluoro-2-methylpyridin-3-yl)piperazin-1-yl)-3-methyl-5-((3-(trifluoromethyl)pyridin-2-yl)methyl)pyrido[2,3-b]pyrazin-6(5H)-one]
0.5 to 5	–	Non-Active	Cc1cccc(F)c1N1CCC(c2cc3nccnc3n(Cc3nccnc3C)c2=O)CC1 [compound 20, 7-(1-(2-Fluoro-6-methylphenyl)piperidin-4-yl)-5-((3-methylpyrazin-2-yl)methyl)pyrido[2,3-b]pyrazin-6(5H)-one]
< 0.5	–	Non-Active	Cc1cnc2cc([C@H]3CC[C@H](c4c(C)cccc4F)CC3)c(=O)n(Cc3ncccc3OC(F)(F)F)c2n1 [compound 152, 7-((1r,4r)-4-(2-Fluoro-6-methylphenyl)cyclohexyl)-3-methyl-5-((3-(trifluoromethoxy)pyridin-2-yl)methyl)pyrido[2,3-b]pyrazin-6(5H)-one]
< 0.5	–	Non-Active	Cc1ccc2cc([C@H]3C[C@@H](c4c(C)cccc4F)C3)c(=O)n(Cc3ncccc3C(F)(F)F)c2n1 [243B, 3-((1s,3s)-3-(2-Fluoro-6-methylphenyl)cyclobutyl)-7-methyl-1-((3-(trifluoromethyl)pyridin-2-yl)methyl)-1,8-naphthyridin-2(1H)-one]
0.5 to 5	Non-Active at 10 μM	–	Cc1cnc2cc([C@@H]3CC[C@H](c4c(C)cccc4F)C3)c(=O)n(Cc3nccnc3C)c2n1 [172B, 7-((1R,3S)-3-(2-Fluoro-6-methylphenyl)cyclopentyl)-3-methyl-5-((3-methylpyrazin-2-yl)methyl)pyrido[2,3-b]pyrazin-6(5H)-one]
< 0.5	–	Non-Active	Cc1cnc2cc([C@H]3CC[C@H](c4c(C)cccc4F)C3)c(=O)n(Cc3ncccc3OC(F)F)c2n1 [175C, 5-((3-(Difluoromethoxy)pyridin-2-yl)methyl)-7-((1S,3S)-3-(2-fluoro-6-methylphenyl)cyclopentyl)-3-methylpyrido[2,3-b]pyrazin-6(5H)-one]
0.5 to 5	Non-Active at 10 μM	–	Cc1cnc2cc([C@H]3CC[C@H](c4nccs4)CC3)c(=O)n(Cc3ncccc3C(F)(F)F)c2n1 [compound 158, 3-Methyl-7-((1r,4r)-4-(thiazol-2-yl)cyclohexyl)-5-((3-(trifluoromethyl)pyridin-2-yl)methyl)pyrido[2,3-b]pyrazin-6(5H)-one]
5 to 100	–	Non-Active	Cc1cccc(F)c1N1CCC(n2c(=O)c3nccnc3n(Cc3nccnc3C(F)(F)F)c2=O)CC1 [compound 37, 3-(1-(2-Fluoro-6-methylphenyl)piperidin-4-yl)-1-((3-(trifluoromethyl)pyrazin-2-yl)methyl)pteridine-2,4(1H,3H)-dione]
0.5 to 5	Non-Active at 10 μM	–	Cc1cnc2cc([C@H]3CC[C@H](c4c(C)nn(C)c4C)CC3)c(=O)n(Cc3ncccc3C(F)(F)F)c2n1 [compound 190, 3-Methyl-5-((3-(trifluoromethyl)pyridin-2-yl)methyl)-7-((1r,4r)-4-(1,3,5-trimethyl-1H-pyrazol-4-yl)cyclohexyl)pyrido[2,3-b]pyrazin-6(5H)-one]
< 0.5	Non-Active at 10 μM	–	CCOc1nccnc1Cn1c(=O)c([C@H]2CC[C@H](c3c(C)cccc3F)CC2)cc2ncc(C)nc21 [compound 169, 5-((3-Ethoxypyrazin-2-yl)methyl)-7-((1r,4r)-4-(2-fluoro-6-methylphenyl)cyclohexyl)-3-methylpyrido[2,3-b]pyrazin-6(5H)-one]
